Measured values taken from article PMC6208284 (Phytotherapy Research, 2018).

Key:
[1] = system: Leishmania tarentolae promastigotes (LtP); assay: Low molecular thiols in LtP, CMFDA method; assay type: cell-based; conditions: 5 hr incubation at 26 °C, PBS/glucose
Description: LtP were centrifuged twice (1,800 g, 10 min, 20 °C), the cell pellets were resuspended in PBS/glucose (15 mM), and the cell number was adjusted to 1 × 10^7/ml. Aliquots (250 μl) were added to 96‐well plates (black, nontreated plates), along with compound stocks (keeping a maximum of 2% DMSO). Following a 5‐hr incubation at 26 °C, plates were centrifuged (1,800 g, 10 min, 20 °C), and 200 μl of supernatant was removed. To the remaining cell suspension, 100 μl of CMFDA in PBS was added giving a final concentration of 5 μM. After gentle shaking, the cells were incubated for 15 min at 37 °C in the dark. The fluorescence of the methyl fluorescein (MF)‐thiol adduct (Sarkar, Mandal, Singh, Sundar, & Chatterjee, 2009) was measured at 15, 30, 45, and 60 min at 485 nm (excitation wavelength) and 530 nm (emission wavelength) using a plate reader (PerkinElmer Enspire, Germany). The OD600 nm was determined for cell count, and the measured fluorescence intensity was normalized to the cell number. Three replicate measurements were performed for each condition.

[2] = system: Leishmania tarentolae promastigotes (LtP); assay: Superoxide radical detection in LtP by CMH/ESR; assay type: cell-based; conditions: for CM● formation (superoxide radicals) in LtP: 100 μM compound, immediate, with DFO and DTPA
Description: Detection of superoxide radicals was performed using CMH as reaction partner and measuring the formed stable nitroxyl radicals by electron spin resonance (ESR) spectroscopy. Measurements were performed in PBS (136 mM NaCl, 1.15 mM KH2PO4, 14 mM Na2HPO4, and 2.7 mM KCl, pH 7.4) containing 15 mM glucose, 400 μM CMH, and 100 μM DFO (desferrioxamine mesylate) and 25 μM DTPA. Usually, these assays are performed in the presence of iron chelators (DFO and DTPA) to prevent CMH interaction with free Fe^3+ leading to CM^● unrelated to superoxide radicals. Before the measurements, LtP suspensions were washed twice with PBS to remove the medium. Typical experiments contained 5 × 10^8 LtP cells/ml. Stock solutions of EO compounds dissolved in DMSO were added. The influence of Asc (6–700 μM) on the CMH oxidation rate by LtP was assessed immediately and after prolonged incubation time (1 hr between Asc and CMH addition). The influence of iron‐dependent Asc activation in LtP on CMH oxidation was studied in the absence of iron chelators DFO and DTPA. Prior to the ESR measurement, 400 μM CMH was added. Afterwards, 17 μl of suspension was aspirated in gas‐permeable Teflon tubes (ID 0.7 mm). This capillary tube was placed in the resonator of the ESR instrument (Bruker EMX, split ring MD5, Germany), and 10 sequential measurements were performed. The following instrument settings were used: microwave frequency 9.682 GHz, modulation frequency 100 kHz, modulation amplitude 1 G, time constant 0.082 s, center field 3,446 G, scan rate 71 G/min, sweep width 100 G, scan time 84 s, and attenuation CMH: 7.96 × 10^3. From the ESR spectra, the middle peak intensity was retrieved, and concentrations of oxidized CMH were obtained by comparison with a standard curve prepared from 3‐carboxy‐proxyl solutions with defined concentrations. Four replicate measurements were performed for each condition.

[3] = set-up: method as in Rappoport & Frankel, 1967; conditions: ref Rappoport & Frankel, 1967; cited from earlier work
[4] = system: Leishmania tarentolae promastigotes (LtP); assay: Mitochondrial coupling (RCR) in LtP, Clark-type electrode, short- and long-term incubation; assay type: cell-based; conditions: 200 μM
Description: Direct inhibitors of mitochondrial ETC instantaneously influence mitochondrial oxygen consumption. To assay the effect of EO compounds on oxygen consumption of LtP, a Clark‐type oxygen electrode (Hansatech, Germany) and software MCREC were used. LtP at approximately 10^8 cells/ml in YEM (25 °C) were added and treated with increasing concentrations of EO compounds between 10 and 200 μM and for EO 5.6–89.6 μg/ml. Each concentration was assayed in quadruplicates, and the results were expressed as percentage of oxygen consumption in comparison with the untreated control LtP. The highest concentration of the vehicle (1% DMSO) caused only 2% inhibition. The uncoupling effect in short‐term and long‐term (0, 6, and 24 hr) incubations with Asc (200 μM) was studied in Oligo‐inhibited (5 μM) and uncoupler‐stimulated (0.5 μM CCCP) LtP in Schneider's medium supplemented with 6 μM hemin. Four replicates were performed for each concentration.

[5] = system: Leishmania amazonensis promastigotes (LaP); set-up: method as in Monzote, Garcia, et al., 2014; conditions: after 72 hr of incubation; ref Monzote, Garcia, et al., 2014; cited from earlier work

| Compound | Low molecular thiol status (rate of thiol‐MF adduct formation) [1] | CM● formation (superoxide radicals) in LtP [2] | pKa value [3] | Effect on mitochondrial coupling in LtP ([4]; immediately after addition) | RCR with respect to vehicle‐treated LtP ([4]; prolonged incubation (6 and 24 hr)) | Membrane potential of LaP (JC‐1) [5] | CMH oxidation (superoxide radical formation) triggered in LtP ([2]; Asc 6–700 μM, 0 hr vs 1 hr incubation, with/without iron chelators) |
| --- | --- | --- | --- | --- | --- | --- | --- |
| C=C1CC[C@H]2O[C@]2(C)CC[C@@H]2[C@@H]1CC2(C)C [Caryo, caryophyllene oxide] | decrease | only slightly increased |  |  |  |  |  |
| Cc1ccc(C(C)C)cc1O [Car, carvacrol] |  |  | around 10 |  |  |  |  |
| CC(C)C12C=CC(C)(CC1)OO2 (centres unmarked) [Asc, ascaridole] |  | only slightly increased |  | only little effects | declined | decrease | increasingly effective upon prolonged incubation and in the absence of iron chelators |
